The record followed here is ChEMBL document CHEMBL4033625, “Novel organophosphorus scaffolds of urease inhibitors obtained by substitution of Morita-Baylis-Hillman adducts with phosphorus nucleophiles” (Eur J Med Chem, 2017).

A short description of experiment [1]: Competitive inhibition of Sporosarcina pasteurii CCM 2056 urease using varying levels of urea as substrate after 10 mins by Lineweaver-Burk plot analysis.
Experiment [2] in a line: Competitive inhibition of Sporosarcina pasteurii CCM 2056 urease using varying levels of urea as substrate pretreated for 60 mins followed by substrate addition after 10 mins by Lineweaver-Burk plot analysis.
In experiment [3] the test system is Sporosarcina pasteurii. Briefly: Potency index, ratio of Methyl (Z)-2-{[hydrogen(hydroxy)phosphoryl]methyl}-3-phenylpropenoate Ki to compound Ki for competitive inhibition of Sporosarcina pasteurii CCM 2056 urease using varying levels of urea as substrate pretreated for 60 mins followed by substrate addition measured after 10 mins.
Experiment [4] in a line: Inhibition of Sporosarcina pasteurii CCM 2056 urease using urea as substrate pretreated for 60 mins followed by substrate addition after 15 mins by phenol-hypochlorite reagent based colorimetric method.
Experiment [5] can be described thus: Inhibition of Sporosarcina pasteurii CCM 2056 urease using urea as substrate after 15 mins by phenol-hypochlorite reagent based colorimetric method.
Experiment [6] can be described thus: Irreversible inhibition of Sporosarcina pasteurii CCM 2056 urease assessed as reduction in ammonia production using urea as substrate pretreated for 60 mins followed by substrate addition measured for 120 mins by Berthelot colorimetric assay.
Experiment [7] is described as follows: Irreversible inhibition of Sporosarcina pasteurii CCM 2056 urease assessed as reduction in ammonia production using urea as substrate measured for 120 mins by Berthelot colorimetric assay.
Experiment [8] has as its system Sporosarcina pasteurii. The experiment can be described thus: Ratio of Kinact to Ki for Sporosarcina pasteurii CCM 2056 urease.
For experiment [9], the system named is Sporosarcina pasteurii. The experiment can be described thus: Inhibition of Sporosarcina pasteurii CCM 2056 urease up to 2 mM using urea as substrate pretreated for 60 mins followed by substrate addition after 15 mins by phenol-hypochlorite reagent based colorimetric method.
Experiment [10] can be described thus: Slow-binding inhibition of Sporosarcina pasteurii CCM 2056 urease using varying levels of urea as substrate pretreated for 60 mins followed by substrate addition after 120 mins by phenol-hypochlorite reagent based colorimetric method.
Experiment [11] can be described thus: Slow-binding inhibition of Sporosarcina pasteurii CCM 2056 urease using varying levels of urea as substrate after 120 mins by phenol-hypochlorite reagent based colorimetric method.
Experiment [12] can be described thus: Inhibition of Proteus mirabilis urease.

pIC50, pKi: −log10 of the molar value. Active and inactive are the calls of the source. The rule behind the calls is not given here.

Regarding `COC(=O)/C(=C/c1ccc(OC)cc1)CCP(=O)(O)O`, the pKi was 3.49 in [1] and 3.53 in [2].

Turning to `COC(=O)/C(=C/c1ccc(C)cc1)C[PH](=O)O`, the pKi is 4.38 in experiment [1] and 4.63 in experiment [2]. Besides, the Ratio Ki in the experiment on Sporosarcina pasteurii [3] was in the range of 5 to 7.

`O=C(O)/C(=C/c1ccccc1)CP(=O)(O)O`: the pIC50 in experiment [4] was 4.56; in experiment [5] it was 4.35. The pKi in experiment [1] is 4.79; in [2], 4.88 to 4.89.

Consider `COc1ccc(/C=C(\CP(=O)(O)O)C(=O)O)cc1`, for which the pKi was 4.54 in [1] and 4.46 in experiment [2].

Turning to `COC(=O)/C(=C/c1ccc(NC(C)=O)cc1)C[PH](=O)O`, the pKi in experiment [1] is 4.69; in experiment [2], 4.87. The Ratio Ki in the experiment on Sporosarcina pasteurii [3] lay within 5 to 7.

Regarding `C=C(C(=O)OC)C(OC(C)=O)c1ccc(Cl)cc1` (configuration not stated), the pIC50 was 4.75 in [6] and 4.27 in experiment [7]. In addition, the Ratio in the experiment with Sporosarcina pasteurii [8] turned out to be 75.3 M⁻¹ s⁻¹.

Regarding `COC(=O)/C(=C/c1ccccc1)CP(C)(=O)O`, the inhibition entry in the experiment on Sporosarcina pasteurii [9] is “inactive”.

Turning to `COC(=O)/C(=C/c1ccc(NC(C)=O)cc1)CP(=O)(O)O`, the values for the pKi in [1] and in [2] were 3.39 and 3.41, respectively.

Consider `O=C(O)/C(=C/c1ccccc1)CCP(=O)(O)O`, for which the pIC50 in [4] was 4.32; in [5], 4.08. For the same compound, the figures for the pKi in experiment [1] and in experiment [2] were 4.25 and 4.18, respectively.

For `Cc1ccc(/C=C(\CCP(=O)(O)O)C(=O)O)cc1`, the pKi in [2] is 4.18.

Regarding `Cc1ccc(CC(CP(=O)(O)O)C(=O)O)cc1` (configuration not stated), the pKi in experiment [1] was 4.06; in [2], 4.04.

As to `O=C(O)/C(=C/c1ccc(F)cc1)CCP(=O)(O)O`, the pKi in experiment [1] was 4.49; in experiment [2], 4.55.

Take `O=C(O)/C(=C/c1ccc([N+](=O)[O-])cc1)CCP(=O)(O)O`: the pKi in experiment [10] was 3.36; in [11], 4.22.

In the case of `O=C(O)/C(=C/c1ccccc1)C[PH](=O)O`, the pIC50 in [4] is 3.63; in experiment [5], 3.46. In addition, the pKi in experiment [1] is 3.68; in experiment [2], 3.93.

With `COC(=O)/C(=C/c1ccccc1)CP(=O)(O)O`, the inhibition result in the experiment on Sporosarcina pasteurii [9] was “inactive”.

In the case of `Cc1ccc(/C=C(\CP(=O)(O)O)C(=O)O)cc1`, the pKi in experiment [12] was 6.31; in experiment [1], 6.17; in [2] it was 6.23.

Regarding `COC(=O)/C(=C/c1ccccc1)CP(=O)(O)CO`, the negative-log IC50 (pIC50) in experiment [4] is 3.51; in [5] it was 3.33. For the same compound, the pKi in experiment [1] is 3.49; in experiment [2], 3.53.

On to `C=C(C(=O)OC)C(OC(C)=O)c1ccc(F)cc1` (configuration not stated), for which the results for the negative-log IC50 (pIC50) in experiment [6] and in experiment [7] were 5.38 and 4.19, respectively. Moreover, the Ratio in the experiment with Sporosarcina pasteurii [8] was 525 M⁻¹ s⁻¹.

With `C=C(C(=O)OC)C(OC(C)=O)c1ccc(C)cc1` (configuration not stated), the pIC50 is 3.48 in experiment [6] and below 3.00 in [7]. In addition, the Ratio in the experiment with Sporosarcina pasteurii [8] was 5.62 M⁻¹ s⁻¹.

For the compound `COC(=O)/C(=C/c1ccc(OC)cc1)C[PH](=O)O`, the pKi is 3.80 in experiment [1] and 3.83 in experiment [2].

For the compound `COC(=O)/C(=C/c1ccc(OC)cc1)CP(=O)(O)O`, the pKi in experiment [1] is 3.62; in experiment [2] it was 3.64.

In the case of `C=C(C(=O)OC)C(OC(C)=O)c1ccc(OC)cc1` (configuration not stated), the negative logarithm of the IC50 (pIC50) was 2.91 in [6] and below 2.70 in [7]. For the same compound, the Ratio in the experiment on Sporosarcina pasteurii [8] was below 1 M⁻¹ s⁻¹.

Consider `COC(=O)/C(=C/c1ccc(Cl)cc1)CP(=O)(O)O`, for which the pKi in experiment [1] was 4.05; in [2], 4.09.

For `O=C(O)/C(=C/c1ccccc1)CP(=O)(O)CO`, the inhibition result in the experiment with Sporosarcina pasteurii [9] is “inactive”.

As to `Cc1ccc(/C=C(\C[PH](=O)O)C(=O)O)cc1`, in [2], the pKi was 4.63.

For the compound `COC(=O)/C(=C/c1ccc([N+](=O)[O-])cc1)CCP(=O)(O)O`, the negative-log Ki (pKi) in experiment [10] was 3.44; in [11] it was 4.27.

For `O=C(O)/C(=C/c1ccc(F)cc1)CP(=O)(O)O`, the pKi in experiment [1] was 4.87; in experiment [2], 5.01.

`C=C(C(=O)OC)C(OC(C)=O)c1ccc(NC(C)=O)cc1` (configuration not stated): the results for the pIC50 in [6] and in experiment [7] were 3.52 and below 3.00, respectively. Besides, in the experiment with Sporosarcina pasteurii [8], the Ratio was 2.78 M⁻¹ s⁻¹.

With `CP(=O)(O)C/C(=C\c1ccccc1)C(=O)O`, in the experiment with Sporosarcina pasteurii [9], the inhibition entry is “inactive”.

`COC(=O)/C(=C/c1ccc(F)cc1)CP(=O)(O)O`: the pKi is 4.14 in experiment [1] and 4.20 in experiment [2].

In the case of `COC(=O)/C(=C/c1ccc(Cl)cc1)C[PH](=O)O`, the pKi is 4.62 in experiment [1] and 4.78 in experiment [2]. In addition, the Ratio Ki in the experiment with Sporosarcina pasteurii [3] lay within 5 to 7.

Regarding `C=C(C(=O)OC)C(OC(C)=O)c1ccc([N+](=O)[O-])cc1` (configuration not stated), the pIC50 was 3.65 in experiment [6] and 3.17 in experiment [7]. In the experiment with Sporosarcina pasteurii [8], the Ratio amounted to 2.34 M⁻¹ s⁻¹.

Take `O=C(O)/C(=C/c1ccc(Cl)cc1)CP(=O)(O)O`: the values for the pKi in experiment [1] and in experiment [2] were 4.71 and 4.79, respectively.

Regarding `COC(=O)/C(=C/c1ccc(F)cc1)CCP(=O)(O)O`, the pKi in [1] and in experiment [2] was 4.32 each time.

On to `COC(=O)/C(=C/c1ccc(C)cc1)CP(=O)(O)O`, for which the pKi in experiment [1] was 4.67; in experiment [2] it was 4.68.

As to `COC(=O)/C(=C/c1ccc(F)cc1)C[PH](=O)O`, the pKi was 4.75 in [1] and 4.84 in [2]. Also, in the experiment on Sporosarcina pasteurii [3], the Ratio Ki fell in the range of 5 to 7.

Consider `C=C(C(=O)OC)C(OC(C)=O)c1ccccc1` (configuration not stated), for which the pIC50 was 3.06 in experiment [6] and below 3.00 in [7]. Further, in the experiment with Sporosarcina pasteurii [8], the Ratio was below 1 M⁻¹ s⁻¹.

For `NCP(=O)(O)C/C(=C\c1ccccc1)C(=O)O`, the pIC50 in experiment [4] was 2.87; in experiment [5], 2.82. For the same compound, the values for the negative logarithm of the Ki (pKi) in experiment [1] and in experiment [2] were 2.85 and 2.88, respectively.

As to `COC(=O)/C(=C/c1ccccc1)CCP(=O)(O)O`, the pIC50 in experiment [4] is 5.38; in [5] it was 5.37. Also, the pKi was 5.82 in [12], 5.44 in experiment [1] and 5.52 in experiment [2].

`COC(=O)/C(=C/c1ccccc1)CP(=O)(O)CN`: the inhibition result in the experiment on Sporosarcina pasteurii [9] was “inactive”.

Consider `COC(=O)/C(=C/c1ccccc1)C[PH](=O)O`, for which the values for the pIC50 in experiment [4] and in [5] were 3.98 and 3.70, respectively. Besides, the pKi was 3.75 in experiment [1] and 4.01 in experiment [2].
